Results: patent publication EP4324461A1, “(E)-N-CINAMOYLAMINOALKANOLES WITH MELANOGENESIS INHIBITORY ACTIVITY” (UNIWERSYTET JAGIELLONSKI, priority 2022, dated 2024)
Converted amounts (≈) assume the structure as drawn. Like-named read-outs stand apart in the source and are kept apart here.

Columns and labels:
tyrosinase [1] = settings: reference [11], cited from earlier work
[2] = system: human reconstructed epidermis Episkin™; assay: Skin irritation test in reconstructed human epidermis (Episkin); settings: 5% aqueous, 15 min exposure, 42 h incubation
Description: The study used human reconstructed epidermis Episkin™ with an area of 1.07 cm^2. Immediately after receipt, the tissue was transferred to fresh medium and cultured in an incubator (37 °C, 5% CO2) for 18 hours. Before performing experiments, the inserts were washed with sterile PBS and placed in the wells of a 12-well plate containing 2 mL of fresh culture medium. […] After 15 min of exposure, samples were washed with PBS (5x5 mL). The inserts were transferred to plates with fresh culture medium and incubated for 42 hours (37 °C, 5% CO2). After this time, the entire medium was collected to assess the amount of released interleukin 1α (the medium was stored at -20 °C until the experiment was performed), and the inserts were transferred to the MTT solution. […] Measurement of the absorbance of the samples obtained in this way at 570 nm enabled the assessment of tissue viability according to the formula: % Viability = [OD (570 nm) for the tested compound/OD (570 nm) for the control] × 100.

[3] = system: reconstituted human epidermis EpiDerm; settings: 21 h, 0.01 %
Description: An epidermis with an area of 0.6 cm^2 was used. After receiving the tissue, the inserts were transferred to fresh medium and incubated in an incubator (5% CO2, 37 °C). All work during epidermis culture and application of the tested compounds and formulations was carried out in a laminar air flow chamber, using aseptic principles and sterile reagents and utensils. […] The applied solutions and formulation were spread on the surface of the inserts using a sterile glass bulb headed Pasteur pipette. The plates were incubated in the incubator for 21 hours, after which the inserts were transferred to new 6-well plates with 0.9 mL DBPS. 1 plate was exposed to UVA radiation at a dose of 6 J/cm^2 using a solar light simulator (Solar Simulator, Atlas) as its source (+UVA plate). The second plate was placed in a dark place outside the incubator for the same period of time (-UVA plate). After exposure, inserts from both plates were rinsed with DPBS, dried with a sterile cotton bud and placed in new plates containing 0.9 mL of fresh growth medium and incubated for 21 hours. After this time, the MTT test was performed by placing the inserts in 0.3 mL of MTT solution in DMEM medium (concentration 1 mg/mL) for 3 hours. After this time, the formed formazan was extracted into isopropanol and the absorbance of all samples was read at 270 nm. […]

[4] = system: Balb/c 3T3 murine fibroblast cell line; assay: Phototoxicity in Balb/c 3T3 fibroblasts (neutral red uptake)
Description: Balb/c 3T3 cells, which are an immortalized murine fibroblast cell line, were purchased at ATTC and cultured in the medium recommended by the manufacturer (DMEM GlutaMAX, newborn calf serum (BCS), antibiotics). After multiplication, cells were placed in 96-well plates, which were incubated for 24 hours, after which all wells of the plates were washed with 150 µL of balanced salt solution (HBSS). Then, after drying the plates, 100 µL of a solution of the tested compounds in HBSS with 2% FBS was added to each well and incubated for an hour. After this time, some of the plates were irradiated using the Suntest CPS+ sunlight simulator from Atlas with appropriate filters cutting off radiation with a wavelength <320 nm (UVA radiation intensity 5 J/cm^2). The second part of the plates was placed in radiation-free conditions for the same period of time. After the exposure time, the liquid was removed from all plates and the wells were washed twice with 150 µL of HBSS, then supplemented with fresh culture medium and incubated for 24 hours in an incubator (37 °C, 5% CO2). Viability was assessed in the neutral red uptake test, which is based on the ability of the dye to penetrate only into living cells. Dye uptake was confirmed by absorbance measurement at 540 nm. […] The appropriate coefficients were also calculated: mean phototoxic effect (MPE) and photoirritation factor (PIF). PIF is the ratio of the IC50 values of unirradiated to irradiated cells, while MPE is based on the comparison of concentration-response curves. […]

tyrosinase [5] = settings: reference [6]; read-out: IC50, tyrosinase diphenolase activity; cited from earlier work
[6] = 7-day application of a cream to the skin before exposure to UV radiation; compared to untreated skin; reference [8]; cited from earlier work

## CCOC(=O)[C@H](Cc1ccccc1)NC(=O)C=Cc1ccc(O)c(OC)c1 (stereo in doubt) [N-[3-(4-hydroxy-3-methoxyphenyl)-1-oxo-2-propen-1-yl]-L-phenylalanine ethyl ester]
Tyrosinase [1]
  type of inhibition: mixed type of inhibition
Tyrosinase [1]; read-out: IC50, tyrosinase inhibition
  IC50: 0.185 ± 0.005 µM

## CCCCCCCCCCCCOS(=O)(=O)[O-].[Na+] [SDS, sodium lauryl sulfate]
[2]; compared to the negative control (PBS and PEG400)
  tissue viability: 23.8%
[2]; positive control
  IL-1α concentration in the culture medium: > 250 pg/mL

## CN(C)CCCN1c2ccccc2Sc2ccc(Cl)cc21 [Chlorpromazine, reference compound]
[3]
  Viability [% relative to water] ± SD: 99.52±9.41 % relative to water
[4]
  phototoxic potential: clearly indicate its phototoxic potential
[4]; Mus musculus, BALB/c3T3
  IC50: 18.6 µg/mL (≈ 58.2 µM)
[4]; mouse, 1 h
  MPE: 0.499
  PIF: 25.618

## O=C(O)C=Cc1ccc(O)cc1 [4-Hydroxycinnamic acid]
Tyrosinase [5]
  IC50: 500 µM
[6]
  inhibition of erythema formation: 77%
